According to patent US12280121B2, “Immunoconjugates and methods” (Immunome, Inc., priority 2021, dated 2025):
Structures can show the parent of a compound that is named as a salt. Where two headings read alike, the source gives them in different places. Non-standard residues stand in square brackets, D forms with d. Residues, ends and D or L forms follow the SMILES beside them. *: point of attachment. Dolaproine = CO[C@@H]([C@@H]1CCCN1)[C@@H](C)C(=O)O; Dil = CC[C@H](C)[C@H](NC)[C@@H](CC(=O)O)OC; X1 = C[C@@H](N*)[C@@H](O)c1ccccc1; NMeV = CN[C@H](C(=O)O)C(C)C

What was measured:
[1] = PAMPA (Parallel Artificial Membrane Permeability Assay); type: physicochemical
Excerpt: PAMPA is a method which determines the permeability of substances from a donor compartment, through a lipid-infused artificial membrane into an acceptor compartment. See Ottaviani, G.; Martel, S.; Carrupt, P-A. “Parallel Artificial Membrane Permeability Assay: A New Membrane for the Fast Prediction of Passive Human Skin Permeability”, Journal of Medicinal Chemistry, 2006, 49 (13), 3948-3954). A multi-well microtitre plate is used for the donor and a membrane/acceptor compartment is placed on top; the whole assembly is commonly referred to as a “sandwich”. At the beginning of the test, the drug is added to the donor compartment, and the acceptor compartment is drug-free. After an incubation period which may include stirring, the sandwich is separated, and the amount of drug is measured in each compartment. Mass balance allows calculation of drug that remains in the membrane.
The PAMPA was performed by Pion Inc using the GIT-0 lipid and 5 μM donor solution in pH 5.0 and pH 7.4 PRISMA buffer (containing 0.05% DMSO). The higher PAMPA data has been associated with better bystander killing. (Ogitani Y.; Hagihara K.; Oitate, M.; Naito, H.; Agatsuma T. “Bystander killing effect of DS-8201a, a novel anti-human epidermal growth factor receptor 2 antibody-drug conjugate, in tumors with human epidermal growth factor receptor 2 heterogeneity” Cancer Science, 2016, 107 (7), 1039-1046).

[2] = test system: MDA-MB-468; test: CTG assay (CellTiter-Glo cell viability), MDA-MB-468, payload compounds; type: cell-based
Excerpt: (§1) The CTG assay is a method of determining the number of viable cells in culture based on quantitation of the ATP present, an indicator of metabolically active cells. The cell assay requires the addition of a single reagent, Cell Titer Glo, in which cells are lysed and generation of a luminescent signal is produced. The luminescent signal is proportional to the amount of ATP present. The amount of ATP is directly proportional to the number of cells present in culture. For our assay, cells were ensured to be in log-phase for either Jeko-1 or MDA-MB-468. Cells were transferred to 96 wells and treated with compounds in three-fold serial dilution starting from 1 μM to 0.0000508 μM (10 points dilution), for 72 h. Cell viability was analyzed with CellTiter-Glo® Luminescent Cell Viability Assay (Promega) following manufactures' instruction. Percentage of viable cells in each compound concentration was determined by normalizing with the luminescence of vehicle control and plotted into percentage of viability versus dose response curve by nonlinear fit in GraphPad Prism software.

[3] = Human liver microsome clearance (HLM CL); type: in vitro ADME
Method: (§2) Working solution was prepared by adding 5 μL of compound and control stock solution (10 mM in dimethyl sulfoxide, DMSO) to 495 μL of acetonitrile (ACN) (intermediate solution concentration: 100 μM, 99% CAN and 1% DMSO. The appropriate concentrations of microsome working solutions were prepared in 100 mM potassium phosphate buffer. After reaction plates containing mixtures of compound and microsomes were pre-incubated at 37° C. for 10 min, […] of 2 mM of NADPH and 2 mM of MgCl2 solution was added to start the reaction. The final concentrations of incubation medium were as follows: microsome—0.5 mg protein/mL, test compound/control […], NADPH—1 mM, MgCl2 —1 mM, acetonitrile 0.99%, DMSO 0.01%. Incubations were performed at 37° C. for 60 min. Samples were taken out at TO, T5, T15, T30, T45 and T60, which was added intermediately to the ice-cold stop solution (acetonitrile with 200 ng/mL of tobutamide and labetalol as internal standard) (125 μl), shaken for 10 min, centrifuged at 4000 rpm for 20 min at 4° C. Analytical plates were analyzed by LCMS.
(§3) Human liver microsome clearance assay assess metabolism by the cytochrome P450 system (phase I enzymes). These enzymes oxidize substrates by incorporating oxygen atoms into hydrocarbons, thus causing the introduction of hydroxyl groups, or N- O- and S-dealkylation of substrates and forming more polar products easier to be cleared. Human hepatocyte clearance assay measures more broadly the overall cellular metabolism of the test compound (phase I and phase II enzyme pathways). Phase II enzymes catalyze the conjugation reaction of xenobiotic metabolites and charged species, such as glutathione, sulfate, glycine, or glucuronic acid to form even more polar compounds for easier clearance.

[4] = test system: Jeko-1; test: CTG assay of ROR-1 ADCs and toxins, JeKo-1; type: cell-based
Method: FIG. 33 illustrates a CTG assay wherein ROR+ (JeKo-1) cells were incubated with the ADCs generated as described in FIG. 32 in serial three-fold dilutions and cell viability was assessed after 72 hours.
as §1
Novel ROR-1 antibody-drug conjugates (ADCs) were evaluated by CTG Assay in a similar manner as was described in Example 24 for screening of payloads. […] Briefly ROR+(JeKo-1/MDA-MB-468) or ROR− (Ramos) cells were transferred to 96 wells and treated with the ADCs in three-fold serial dilution starting from […] (10 points dilution), for 72 h. Cell viability was analyzed with CellTiter-Glo® Luminescent Cell Viability Assay (Promega) following the manufactures' instructions (FIG. 33). The percentage of viable cells at each ADC concentration was determined by normalizing with the luminescence of vehicle control and plotted into percentage of viability versus dose response curve by nonlinear fit in GraphPad Prism software.

[5] = Human hepatocyte clearance (HHEP CL); type: in vitro ADME; parameters: CLint scaled / half-life: dose or concentration left out as unconfirmed; details: both sexes
Method: (§4) Suspensions of human hepatocytes (from 10 mixed gender human donors, final concentration 0.5×10^6 cell/mL) in Williams' E medium were incubated for 90 min with a test compound (0.90% acetonitrile and 0.10% DMSO, final concentration […]) and positive controls (7-Ethoxycoumarin, 7-Hydroxycoumarin, 0.90% acetonitrile and 0.10% DMSO, final concentration […]), with constant shaking at about 600 rpm at 37° C. in an incubator at 5% CO2 and 95% humidity. The total volume of incubation was 200 μl. A sample ([…]) was taken out at TO, 15, 30, 60 and 90 min, which was added intermediately to the ice-cold stop solution (acetonitrile with 200 ng/mL of tobutamide and labetalol as internal standard) (125 μl), and vortexed at 500 rpm for 10 min, centrifuged at 3220×g for 20 min at 4° C. Analytical plates are sealed and stored at 4° C. until LCMS analysis. Viability of hepatocytes at pre-incubation was determined to be 84.5%.
as §3

[6] = test system: Jeko-1; test: CTG assay (CellTiter-Glo cell viability), Jeko-1, payload compounds; type: cell-based
Excerpt: as §1

[7] = test system: human liver microsome; test: Human liver microsome clearance (HLM CL); type: in vitro ADME; details: human liver microsomes 0.5 mg protein/mL, NADPH, 60 min
Method: as §2, §3

[8] = test system: human hepatocytes; test: Human hepatocyte clearance (HHEP CL); type: in vitro ADME; parameters: CLint scaled / half-life: dose or concentration left out as unconfirmed; details: human hepatocytes, 90 min incubation
Method: as §4, §3

[9] = AC-SINS self-interaction assay; type: physicochemical; details: FIG. 30
Method: Antibody developability was assessed by performing an AC-SINS assay and evaluating the potential for self-interaction.
An initial assessment of antibody developability was performed by AC-SINS to evaluate the potential for self-interaction (FIG. 30).

[10] = Homo sapiens, MDA-MB-468, 72 h, CellTiter-Glo, read-out: MDA-MB-468 IC50
[11] = Homo sapiens, Jeko-1, average of run 1 and run 2, read-out: Avg. IC50
[12] = Homo sapiens, Jeko-1 P3, run 1, 72 h, read-out: Jeko-1 P3 (RUN1) IC50
[13] = Homo sapiens, Jeko-1 P4, run 2, 72 h, read-out: Jeko-1 P4 (RUN2) IC50
[14] = Homo sapiens, JeKo-1, 72 h, CellTiter-Glo, read-out: JeKo-1 IC50
[15] = Jeko-1, average of run 1 and run 2, read-out: Avg. IC50
[16] = Jeko-1 P3, run 1, 72 h, read-out: Jeko-1 P3 (RUN1) IC50

| Compound | Papp at 5 μM ([1]; pH 5) [×10⁻⁶ cm/s] | Papp at 5 μM ([1]; pH 7.4) [×10⁻⁶ cm/s] | IC50 [2, 10] [nM] | CLint scaled ([3]; human, microsomes) [mL/min/kg] | half-life ([3]; human, microsomes) [min] | CLint scaled ([5]; human, hepatocytes) [mL/min/kg] | half-life ([5]; human, hepatocytes) [min] | IC50 [6, 14] [nM] | other results |
| --- | --- | --- | --- | --- | --- | --- | --- | --- | --- |
| CC[C@@]1(O)C(=O)OCc2c1cc1n(c2=O)Cc2c-1nc1cc(F)c(C)c3c1c2[C@@H](OCCO)CC3 (single isomer, unassigned) [Compound 5-48] | 69 | 9 | 8.3 | 17.4 | 71.7 | 75.5 | 51.1 | 0.68 | IC50 [4, 11]: 0.5 nM; IC50 [4, 12]: 0.5 nM; IC50 [4, 13]: 0.5 nM |
| CC[C@@]1(O)C(=O)OCc2c1cc1n(c2=O)Cc2c-1nc1cc(F)c(C)c3c1c2[C@@H](NC(=O)CO)CC3 [Dxd, reference compound] |  |  |  |  |  |  |  |  | IC50 ([2]; 72 h, CellTiter-Glo, read-out: MDA-MB-468 IC50): 11.6 nM; HLM (T1/2) [7]: (>145); HLM Cl (human liver microsome clearance) [7]: 8.6 mL/min/kg; IC50 [4, 15]: 0.9 nM; IC50 [4, 16]: 0.9 nM; HHEP (T1/2) [8]: (79.0) min; HHEP Cl (human hepatocytes intrinsic clearance) [8]: 48.7 mL/min/kg; IC50 ([6]; 72 h, CellTiter-Glo, read-out: JeKo-1 IC50): 1.42 nM |
| CC[C@@]1(O)C(=O)OCc2c1cc1n(c2=O)Cc2c-1nc1cc(F)c(C)c3c1c2[C@@](C)(N)CC3 (single isomer, unassigned) [Compound 8-71, hydrochloride] | 67.7 | 8.6 | 6.1 | 41.9 | 30 | 81.7 | 47 | 0.44 |  |
| CC[C@@]1(O)C(=O)OCc2c1cc1n(c2=O)Cc2c-1nc1cc(F)c(C)c3c1c2[C@](C)(N)CC3 (single isomer, unassigned) [Compound 8-72, hydrochloride] | 80.8 | 8.4 | 7.7 | 35.9 | 35 | 79.1 | 49 | 1.5 |  |
| CC[C@@]1(O)C(=O)OCc2c1cc1n(c2=O)Cc2c-1nc1cc(F)c(C)c3c1c2[C@@](C)(NC(=O)CO)CC3 [Compound 9-74, N-((1S,9S)-9-ethyl-5-fluoro-9-hydroxy-1,4-dimethyl-10,13-dioxo-1,2,3,9,10,12,13,15-octahydrobenzo[de]pyrano[3′,4′:6,7]indolizino[1,2-b]quinolin-1-yl)-2-hydroxyacetamide] | 36.1 | 4.4 | 57.7 | 22.7 | 54.9 | 57.5 | 67 | 4.1 | IC50 [4, 11]: 3.1 nM; IC50 [4, 12]: 2.4 nM; IC50 [4, 13]: 3.7 nM |
| CC[C@@]1(O)C(=O)OCc2c1cc1n(c2=O)Cc2c-1nc1cc(F)c(C)c3c1c2[C@@H](N)CC3.CS(=O)(=O)O [Exatecan, (1S,9S)-1-amino-9-ethyl-5-fluoro-9-hydroxy-4-methyl-2,3,12,15-tetrahydro-benzo[de]pyrano [3′,4′:6,7]indolizino[1,2-b]quinoline-10,13(1H,9H)-dione methanesulfonate, reference compound] |  |  |  |  | 106 |  | 65 |  | Papp ([1]; pH 5): 37.2 ×10⁻⁶ cm/s; Papp ([1]; pH 7.4): 5.7 ×10⁻⁶ cm/s; IC50 ([2]; Homo sapiens, MDA-MB-468, 72 h, read-out: MDA-MB-468 IC50 (nM)): 6.2 nM; CLint scaled ([3]; human liver microsomes 0.5 mg protein/mL, NADPH, 60 min, read-out: HLM Cl (human liver microsome clearance)): 11.7 mL/min/kg; CLint scaled ([5]; human hepatocytes in suspension, human hepatocytes, 90 min incubation, read-out: HHEP Cl (human hepatocytes intrinsic clearance)): 59.3 mL/min/kg; IC50 ([6]; Homo sapiens, JeKo-1, 72 h, read-out: JeKo-1 IC50 (nM)): 0.59 nM |
| Adalimumab |  |  |  |  |  |  |  |  | AC-SINS shift (self-interaction) [9]: low shift |
| CC[C@H](C)[C@@H]([C@@H](CC(=O)N1CCC[C@H]1[C@H](OC)[C@@H](C)C(=O)N[C@H](C)[C@@H](O)c1ccccc1)OC)N(C)C(=O)[C@@H](NC(=O)[C@@H](NC)C(C)C)C(C)C [MMAE, reference compound] (H-[NMeV]V[Dil][Dolaproine]-X1) |  |  |  |  |  |  |  |  | IC50 [4, 15]: 0.2 nM; IC50 [4, 16]: 0.2 nM; IC50 ([4]; Jeko-1 P4, run 2, 72 h, read-out: Jeko-1 P4 (RUN2) IC50): 0.2 nM |
| CC[C@@]1(O)C(=O)OCc2c1cc1n(c2=O)Cc2c-1nc1cc(F)c(C)c3c1c2[C@H](O)CC3 (single isomer, unassigned) [Compound 3-34] | 78.3 | 8.2 | 6 | 32.1 | 38.8 | 79.2 | 48.7 | 0.59 |  |
